From patent US10555919B2, “Melatonin in autoimmune disease” (The Brigham and Women's Hopsital, Inc., priority 2014, dated 2020)

What was measured:
[1] = system: human CD4+ T cells activated under Tr1 polarizing conditions; assay: In vitro human Tr1 differentiation; format: cell-based; conditions: 500 ng/ml
Source text: We then studied the effects of melatonin on human CD4^+ T cells. In addition, we also analyzed the effects of agomelatine, which activates melatonin-dependent signaling (Hickie and Rogers, 2011). Based on the effects of melatonin administration on T cells during EAE, we focused our studies on human Th17 and Tr1 cells. Melatonin and agomelatine reduced the production of IL-17, RORC and IL17A expression by human CD4^+ T cells activated under Th17 polarizing conditions (FIGS. 3a-c and FIG. 8), no effect was detected on the differentiation of human Th1 cells (FIGS. 3d-f). Concomitantly, melatonin and agomelatine increased IL10 expression.

Erk1/2 = assay: Signal transduction profiling using reverse protein arrays; format: cell-based, mouse; conditions: T cells; MTNR1A-dependent
Protocol: Cells activated under polarizing conditions were treated with vehicle (DMSO 0.001%), melatonin (2-10 ng/mL), agomelatine (2-10 ng/mL) and CGP-52608 (2-10 ng/mL) during 72-96 hs and lysed. Lysates were transferred to 384-well polypropylene plates and were spotted onto Super Epoxi slides (Telechem) with a robotic microarrayer (Genetix) fitted with solid spotting pins.

With `COc1ccc2[nH]cc(CCNC(C)=O)c2c1` [Melatonin, N-Acetyl-5-methoxytryptamine] the IL-10 production [1] was “increased” and the “activation of Erk1/2” value (Erk1/2) was “increase”.
